# Data published in US20090081775A1, “Microscope system and screening method for drugs, physical therapies and biohazards” (Stiftesen Unversitetsforskning Bergen, priority 2005, published 2009).
# Values joined by “and” are separate entries in the source; they are usually repeats but may differ in a detail not shown here. Equal values may be shown once.
# System: PC12 cells
# Test: Segmentation of WGA stained PC12 cells treated with thymidine (cell size by automated 3D segmentation)
# Assay type: cell-based, rat
# Method: PC12 and NRK cells were cultured in DMEM supplemented with 10% fetal calf serum and 5% horse serum. For high-resolution fluorescence microscopy and light microscope analysis, PC 12 cells were plated in LabTek™ chambered swell cover glasses (Nalge Nunc Int., Wiesbaden, Germany). Two hours after plating, the cells were stained with two dyes. For the experiments in which the effect of thymidine on cellular size and morphology was investigated, PC12 cells were plated on LabTek™ chambered swell cover glasses. 24 hours after plating, fresh growth medium containing 4 mM thymidine (Sigma) was added to the cells. In the control condition, fresh growth medium without thymidine was used. 24 hours afterwards cells were washed once with prewarmed fresh growth medium and grown further in growth medium without thymidine. […] To specifically display cell borders, cells were stained with wheat germ agglutinin (WGA) conjugated to either AlexaFluor™488 or AlexaFluor™594 (Invitrogen). WGA-AlexaFluor™594 is a lectin which binds glycogenfugates like N-acetylglucosamine and therefore stains biological membranes efficiently. CellTracker™ (CellTracker™, Molecular Probes Inc., Eugene, Oreg., USA) passes freely through cell membranes, but once inside a cell, it is transformed into cell-impermeant reaction products and is retained in living cells through several generations. […]
# High resolution, […] fluorescence microscopy was performed with an Olympus IX70 microscope (Olympus Optical Co. Europa GmbH, Hamburg) or a Zeiss Axiovert 200M (Bergman A S, Lilleström, Norway) both equipped with 100× oil-immersion objectives, monochromator-based illumination systems (T.I.L.L. Photonics GmbH, Martinsried, Germany), tripleband filtersets DAPI/FITC/TRITC F61-020 (AHF Analysetechnik AG, Tübingen, Germany) and piezo z-steppers (Physik Instrumente GmbH & Co., Karlsruhe, Germany). […] With both the wide-field and confocal imaging setups, WGA-stained cells were analyzed in 3D by acquiring single focal planes 300 to 400 nm apart from each other in the z-direction spanning the whole cellular volume. […]
# [1] = 4 mM thymidine for 24 hours, then 24 hours without, mid plane 2D, mean and SEM, three experiments, listed as tymidine
compound,measurement,setting,value
Cc1cn([C@H]2C[C@H](O)[C@@H](CO)O2)c(=O)[nH]c1=O [thymidine],"Dmaj (+): mean major axis length, treated group",[1],15.26 + 0.40 μm and 16.79 + 0.32 μm and 15.83 + 0.25 μm
same,"Dmin (+): mean minor axis length, treated group",[1],9.98 + 0.32 μm and 9.21 + 0.19 μm and 9.01 + 0.18 μm
same,mean size of a cell treated with thymidine compared to a control group,conclusion from three experiments,increase
